Active and inactive are the calls of the source. The calls are words filed in the database; no cut-off is given here.
What was measured:
C6 [1] = assay: Inhibition of MTX-induced calcium influx in rat glioma C6 cells using 45CaCl2 incubated for 12 mins prior to MTX-challenge measured after 12 mins by scintillation counting; type: functional, cell-based
C6 [2] = assay: Inhibition of MTX-induced calcium influx in rat glioma C6 cells using 45CaCl2 at 10 uM incubated for 12 mins prior to MTX-challenge measured after 12 mins by scintillation counting relative to untreated-control; type: functional
C6 [3] = assay: Inhibition of MTX-induced 45Ca2+ influx in rat glioma C6 cells; type: functional, cell-based
Mus musculus = assay: Toxicity in ip dosed mouse; type: organism-based; details: in vivo

| Structure (SMILES) | EC50 (C6 [1]) [µM] | inhibition (C6 [1]) | EC50 (C6 [3]) [µM] | also measured |
| --- | --- | --- | --- | --- |
| C[C@@]12CC[C@@H]3O[C@@H]4C[C@@H]5O[C@@H]6C[C@@H]7O[C@]8(C)CC[C@@H]9O[C@H](CO)[C@@H](O)C[C@H]9O[C@H]8C[C@H]7O[C@H]6CC[C@@]5(C)O[C@H]4C[C@H]3O[C@H]1C[C@H]1O[C@@H](CCOCc3ccccc3)[C@H](OCc3ccccc3)C[C@@H]1O2 | 15 |  |  |  |
| C[C@@]12CC[C@@H]3O[C@@H]4C[C@@H]5O[C@@H]6C[C@H](O)[C@@H](CO)O[C@H]6CC[C@@]5(C)O[C@H]4C[C@H]3O[C@H]1C[C@H]1O[C@@H](CCOCc3ccccc3)[C@H](OCc3ccccc3)C[C@@H]1O2 | 2 | Dose-dependent effect |  | inhibition at 10 µM (C6 [2]): 80% |
| C=C(C=O)C[C@@H]1C[C@H](O)[C@@H]2O[C@@H]3C[C@]4(C)O[C@@H]5/C=C\C[C@@H]6O[C@H]7[C@H](C/C=C\C[C@H]6O[C@H]5CCC[C@H]4O[C@H]3C[C@H]2O1)O[C@@H]1C[C@@H]2O[C@@H]3CC(=O)O[C@H]3C[C@@H](C)C[C@@]2(C)O[C@H]1C[C@@H]7C [BREVETOXIN A] |  |  | 16 |  |
| C=C(C=O)C[C@@H]1C[C@H](O)[C@]2(C)O[C@@H]3C[C@@H]4O[C@@H]5C[C@]6(C)O[C@]7(C)CC[C@@H]8O[C@@H]9C[C@]%10(C)O[C@@H]%11C(C)=CC(=O)O[C@H]%11C[C@H]%10O[C@H]9C[C@@H](C)[C@H]8O[C@H]7C[C@H]6O[C@@]5(C)C/C=C\[C@H]4O[C@H]3C[C@H]2O1 [BREVETOXIN B] |  | Active | 13 |  |
| C=CC[C@H](C)[C@H](C)C[C@@H](O)[C@H](O)[C@@H]1CC[C@@]2(C)O[C@@]3(C)C[C@@]4(C)O[C@H]5/C=C\C[C@H]6O[C@H]7C[C@H]8O[C@H]9C[C@@]%10(C)O[C@@](C)([C@@H]%11CC[C@H]%12O[C@@]%13(C)C[C@H]%14O[C@@]%15(C)C[C@H]%16O[C@@]%17(C)C[C@@H](O)[C@H]([C@@H]%18O[C@H]%19[C@H](O)[C@@H](O)[C@H](C[C@H](O)C[C@@H](O)[C@@H]%20O[C@H]%21[C@H](O)[C@@H](O)[C@H]([C@@H]%22O[C@@H]%23[C@H](O)[C@H]%24O[C@H]%25C[C@H]%26O[C@@H](C[C@H](O)[C@@H](O)[C@H]%27O[C@H]%28[C@H](O)[C@H]%29O[C@H]%30C[C@H]%31O[C@H]%32[C@@H](O)[C@@H](O)[C@H]([C@H](C)[C@H](O)[C@H](C)CC[C@H](OS(=O)(=O)[O-])[C@H](O)[C@H](C)C[C@@H](O)C(=C)/C(C)=C/CO)O[C@@H]%32[C@H](O)C[C@]%31(C)O[C@@H]%30C[C@]%29(C)O[C@@H]%28C[C@H]%27O)[C@H](OS(=O)(=O)[O-])[C@H](O)[C@@H]%26O[C@@H]%25C[C@@H]%24O[C@H]%23[C@H](O)[C@H]%22O)O[C@H]%21C[C@H]%20O)O[C@H]%19C[C@H]%18O)O[C@@H]%17[C@H](O)[C@]%16(C)O[C@@H]%15CC[C@]%14(C)O[C@@H]%13C[C@@H]%12O%11)[C@H](O)C[C@@H]%10O[C@]9(C)CC[C@]8(C)O[C@]7(C)C[C@@H]6O[C@@H]5C[C@@H]4O[C@@H]3C[C@@H]2O1.[Na+].[Na+] [MAITOTOXIN] |  |  |  | LD50 (Mus musculus): 0.05 µg/kg |
